Test results taken from patent publication US20180044343A1, “BICYCLIC IMIDAZOLO DERIVATIVE” (Sumitomo Dainippon Pharma Co., Ltd., priority 2015, published 2018).

Target: PDE1B (Homo sapiens, UniProt Q01064)
Assay: In vitro HTRF PDE1 inhibition assay (PDE1B)
Assay type: biochemical
Settings: in vitro PDE1B HTRF Assay; read-out: IC50

Chain of PDE1B (Q01064 whole entry): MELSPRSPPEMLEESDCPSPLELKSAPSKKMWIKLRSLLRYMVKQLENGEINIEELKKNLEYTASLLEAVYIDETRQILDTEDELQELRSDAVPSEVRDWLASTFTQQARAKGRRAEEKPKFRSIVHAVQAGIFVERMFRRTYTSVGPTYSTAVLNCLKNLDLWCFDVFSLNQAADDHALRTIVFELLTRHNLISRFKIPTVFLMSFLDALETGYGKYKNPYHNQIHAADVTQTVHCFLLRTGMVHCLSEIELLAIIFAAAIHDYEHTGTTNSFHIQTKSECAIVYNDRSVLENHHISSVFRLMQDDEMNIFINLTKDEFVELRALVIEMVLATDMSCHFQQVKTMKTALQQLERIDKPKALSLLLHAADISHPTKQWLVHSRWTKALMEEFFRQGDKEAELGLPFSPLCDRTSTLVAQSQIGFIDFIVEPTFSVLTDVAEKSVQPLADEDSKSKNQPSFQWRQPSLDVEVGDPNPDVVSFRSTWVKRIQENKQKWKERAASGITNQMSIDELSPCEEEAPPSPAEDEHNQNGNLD

Row | IC50 | SMILES
1 | < 1000 nM | Cc1ccc(COc2nn3c(C(C)C)ncc3c(=O)n2C)nc1 [Example 2, 3-Methyl-2-[(5-methylpyridin-2-yl)methoxy]-7-(propan-2-yl)imidazo[5,1-f][1,2,4]triazin-4(3H)-one]
2 | < 1000 nM | CC(C)c1ncc2c(=O)n(C)c(OCCc3ccncc3)nn12 [Example 3, 3-Methyl-7-(propan-2-yl)-2-[2-(pyridin-4-yl)ethoxy]imidazo[5,1-f][1,2,4]triazin-4(3H)-one]
3 | < 1000 nM | CC(C)c1ncc2c(=O)n(C)c(OCc3cccnc3)nn12 [Example 5]
4 | < 1000 nM | CC(C)c1ncc2c(=O)n(C)c(OCC(F)(F)F)nn12 [Example 9]
5 | < 1000 nM | CC(C)COc1nn2c(C(C)C)ncc2c(=O)n1C [Example 11]
6 | < 1000 nM | CC(C)c1ncc2c(=O)n(C)c(OCc3ccccn3)nn12 [Example 12]
7 | < 1000 nM | CC(C)c1ncc2c(=O)n(C)c(OCc3ccc(F)cc3)nn12 [Example 14]
8 | < 1000 nM | CC(C)c1ncc2c(=O)n(C)c(OCc3ccncc3)nn12 [Example 15]
9 | < 1000 nM | CCn1c(OCc2ccccc2)nn2c(C(C)C)ncc2c1=O [Example 17]
10 | < 1000 nM | CCn1c(OCc2cccnc2)nn2c(C(C)C)ncc2c1=O [Example 19]
11 | < 1000 nM | Cn1c(OCc2ccncc2)nn2c(C3CCOCC3)ncc2c1=O [Example 25]
12 | < 1000 nM | Cc1ccc(COc2nn3c(C4CCOCC4)ncc3c(=O)n2C)cc1 [Example 27]
13 | < 1000 nM | Cn1c(OCc2ccc(Cl)cc2)nn2c(C3CCOCC3)ncc2c1=O [Example 28]
14 | 1000 to 10000 nM | Cn1c(OCc2cccc(C#N)c2)nn2c(C3CCOCC3)ncc2c1=O [Example 29]
15 | < 1000 nM | Cn1c(OCCCc2ccccn2)nn2c(C3CCOCC3)ncc2c1=O [Example 31]
16 | < 1000 nM | Cn1c(OCC2CC(F)(F)C2)nn2c(C3CCOCC3)ncc2c1=O [Example 33]
17 | < 1000 nM | Cn1c(OCCC2CCC(F)(F)CC2)nn2c(C3CCOCC3)ncc2c1=O [Example 39]
18 | < 1000 nM | Cn1c(OCc2cccc(F)c2)nn2c(C3CCOCC3)ncc2c1=O [Example 40]
19 | < 1000 nM | Cn1c(OCCCc2ccc(F)cn2)nn2c(C3CCOCC3)ncc2c1=O [Example 41]
20 | < 1000 nM | Cc1ccc(CCCOc2nn3c(C4CCOCC4)ncc3c(=O)n2C)nc1 [Example 42]
21 | < 1000 nM | Cn1c(OCCCc2ncccc2F)nn2c(C3CCOCC3)ncc2c1=O [Example 43]
22 | < 1000 nM | Cn1c(OCc2ccc(-c3ccccn3)cc2)nn2c(C3CCOCC3)ncc2c1=O [Example 44]

Row | IC50 | SMILES
23 | < 1000 nM | Cn1c(OCCCc2cccnc2)nn2c(C3CCOCC3)ncc2c1=O [Example 46]
24 | < 1000 nM | Cn1c(OCc2ccc(-c3ccccc3)cc2)nn2c(C3CCOCC3)ncc2c1=O [Example 47]
25 | < 1000 nM | Cn1c(OCc2ccc(-c3ccc(Cl)cn3)cc2)nn2c(C3CCOCC3)ncc2c1=O [Example 50]
26 | 1000 to 10000 nM | Cn1c(OCc2ccc(-c3ccc(F)cc3)cc2)nn2c(C3CCOCC3)ncc2c1=O [Example 51]
27 | < 1000 nM | CC(Oc1nn2c(C3CCOCC3)ncc2c(=O)n1C)c1ccc(-c2ccccn2)cc1 (centres unmarked) [Example 52]
28 | < 1000 nM | Cn1c(OCc2ccc(-c3ccc(F)cn3)cc2)nn2c(C3CCOCC3)ncc2c1=O [Example 53]
29 | < 1000 nM | CCn1c(OCc2ccc(OC)cc2)nn2c(C3CCOCC3)ncc2c1=O [Example 54]
30 | < 1000 nM | CCn1c(OCC(C)C)nn2c(C3CCOCC3)ncc2c1=O [Example 55]
31 | < 1000 nM | CCn1c(OCc2ccc(F)cc2)nn2c(C3CCOCC3)ncc2c1=O [Example 56]
32 | < 1000 nM | CCn1c(OCc2cc(F)ccc2F)nn2c(C3CCOCC3)ncc2c1=O [Example 57]
33 | < 1000 nM | CCn1c(OCC2(C)COC2)nn2c(C3CCOCC3)ncc2c1=O [Example 58]
34 | < 1000 nM | CCn1c(OCc2ccc(F)c(F)c2)nn2c(C3CCOCC3)ncc2c1=O [Example 59]
35 | < 1000 nM | CCn1c(OCCc2ccncc2)nn2c(C3CCOCC3)ncc2c1=O [Example 60]
36 | < 1000 nM | CCn1c(OCCCc2ccncc2)nn2c(C3CCOCC3)ncc2c1=O [Example 61]
37 | < 1000 nM | CCn1c(OCCCOC)nn2c(C3CCOCC3)ncc2c1=O [Example 62]
38 | < 1000 nM | CCn1c(OCCCc2ccccn2)nn2c(C3CCOCC3)ncc2c1=O [Example 63]
39 | < 1000 nM | CCn1c(OCCc2ccccn2)nn2c(C3CCOCC3)ncc2c1=O [Example 64]
40 | < 1000 nM | CCn1c(OCCCc2ncccc2F)nn2c(C3CCOCC3)ncc2c1=O [Example 65]
41 | < 1000 nM | CCn1c(OCc2ccc(-c3ccccn3)cc2)nn2c(C3CCOCC3)ncc2c1=O [Example 67]
42 | < 1000 nM | CCn1c(OCCCc2cccnc2)nn2c(C3CCOCC3)ncc2c1=O [Example 68]
43 | < 1000 nM | CCn1c(OC(C)c2ccc(F)cc2)nn2c(C3CCOCC3)ncc2c1=O (centres unmarked) [Example 69]
44 | < 1000 nM | CCn1c(OCCc2ccc(F)cc2)nn2c(C3CCOCC3)ncc2c1=O [Example 70]

Row | IC50 | SMILES
45 | < 1000 nM | CCn1c(OCCCc2ncccc2C)nn2c(C3CCOCC3)ncc2c1=O [Example 71]
46 | < 1000 nM | CCn1c(OCCCc2cccc(C)n2)nn2c(C3CCOCC3)ncc2c1=O [Example 72]
47 | < 1000 nM | CCn1c(OCCc2ccccc2)nn2c(C3CCOCC3)ncc2c1=O [Example 73]
48 | < 1000 nM | CCn1c(OCCc2ccccc2F)nn2c(C3CCOCC3)ncc2c1=O [Example 74]
49 | < 1000 nM | CCn1c(OCCc2cccc(F)c2)nn2c(C3CCOCC3)ncc2c1=O [Example 75]
50 | < 1000 nM | CCn1c(OCC2(c3ccc(Cl)cc3)CC2)nn2c(C3CCOCC3)ncc2c1=O [Example 76]
51 | < 1000 nM | CCn1c(OCCc2ccc(-c3ccccc3)cc2)nn2c(C3CCOCC3)ncc2c1=O [Example 77]
52 | < 1000 nM | CCn1c(OCCc2ccc(C(F)(F)F)cc2)nn2c(C3CCOCC3)ncc2c1=O [Example 78]
53 | < 1000 nM | CCn1c(OCc2ccc(-c3ccc(Cl)cc3)cc2)nn2c(C3CCOCC3)ncc2c1=O [Example 79]
54 | 1000 to 10000 nM | CCn1c(OCc2ccc(-c3ccc(F)cc3)cc2)nn2c(C3CCOCC3)ncc2c1=O [Example 80]
55 | < 1000 nM | CCn1c(OCc2ccc(-c3ccc(C)cc3)cc2)nn2c(C3CCOCC3)ncc2c1=O [Example 81]
56 | < 1000 nM | CCn1c(OCC2(c3ccccc3)CC2)nn2c(C3CCOCC3)ncc2c1=O [Example 82]
57 | < 1000 nM | CCn1c(OCc2ccc(-c3ccc(OC)cc3)cc2)nn2c(C3CCOCC3)ncc2c1=O [Example 83]
58 | < 1000 nM | CCn1c(OCc2ccc(-c3ccc(C(F)(F)F)cc3)cc2)nn2c(C3CCOCC3)ncc2c1=O [Example 84]
59 | < 1000 nM | CCn1c(OCc2ccc(-c3ccc(C#N)cc3)cc2)nn2c(C3CCOCC3)ncc2c1=O [Example 85]
60 | < 1000 nM | CCn1c(OCC2CCC2)nn2c(C3CCOCC3)ncc2c1=O [Example 86]
61 | < 1000 nM | CCn1c(OCC2CC(F)(F)C2)nn2c(C3CCOCC3)ncc2c1=O [Example 87]
62 | < 1000 nM | CCn1c(OCC2CCCC2)nn2c(C3CCOCC3)ncc2c1=O [Example 88]
63 | < 1000 nM | CCn1c(OCC2CCCCC2)nn2c(C3CCOCC3)ncc2c1=O [Example 89]
64 | < 1000 nM | CCn1c(OC[C@H]2CC[C@@H](OC)CC2)nn2c(C3CCOCC3)ncc2c1=O [Example 90]
65 | < 1000 nM | CCn1c(OC(C)C2CCC(F)(F)CC2)nn2c(C3CCOCC3)ncc2c1=O (centres unmarked) [Example 92]
66 | < 1000 nM | CCn1c(OCCC2CCC(F)(F)CC2)nn2c(C3CCOCC3)ncc2c1=O [Example 93]

Row | IC50 | SMILES
67 | < 1000 nM | CCCn1c(OCC2CCC(F)(F)CC2)nn2c(C3CCOCC3)ncc2c1=O [Example 94]
68 | < 1000 nM | O=c1c2cnc(C3CCOCC3)n2nc(OCC2CCC(F)(F)CC2)n1C1CC1 [Example 95]
69 | < 1000 nM | CC(C)Cn1c(OCC2CCC(F)(F)CC2)nn2c(C3CCOCC3)ncc2c1=O [Example 96]
70 | < 1000 nM | O=c1c2cnc(C3CCOCC3)n2nc(OCc2ccc(-c3ccccn3)cc2)n1CC1CC1 [Example 97]
71 | < 1000 nM | O=c1c2cnc(C3CCOCC3)n2nc(OCCc2ccc(Cl)cc2)n1CC1CC1 [Example 98]
72 | < 1000 nM | O=c1c2cnc(C3CCOCC3)n2nc(OCc2ccc(F)cc2)n1CC1CC1 [Example 99]
73 | < 1000 nM | O=c1c2cnc(C3CCOCC3)n2nc(OCC2CCC(F)(F)CC2)n1CC1CC1 [Example 100]
74 | < 1000 nM | CCOc1nn2c(C3CCOCC3)ncc2c(=O)n1CC1CCC(F)(F)CC1 [Example 102]
75 | < 1000 nM | CC(C)Oc1nn2c(C3CCOCC3)ncc2c(=O)n1CC1CCC(F)(F)CC1 [Example 103]
76 | < 1000 nM | O=c1c2cnc(C3CCOCC3)n2nc(OCC2CCC(F)(F)CC2)n1CC1CCC(F)(F)CC1 [Example 104]
77 | < 1000 nM | COc1nn2c(C3CCOCC3)ncc2c(=O)n1CCC1CCC(F)(F)CC1 [Example 105]
78 | < 1000 nM | COc1nn2c(C3CCOCC3)ncc2c(=O)n1Cc1ccccc1 [Example 107]
79 | < 1000 nM | COc1nn2c(C3CCOCC3)ncc2c(=O)n1Cc1ccc(F)cc1 [Example 108]
80 | < 1000 nM | Cn1c(OCC2CCOCC2)nn2c(C3CCC3)ncc2c1=O [Example 111]
81 | < 1000 nM | COC(C)c1ncc2c(=O)n(C)c(OCC3CCC(F)(F)CC3)nn12 (centres unmarked) [Example 112]
82 | < 1000 nM | COc1nn2c(C(C)OC)ncc2c(=O)n1CC1CCC(F)(F)CC1 (centres unmarked) [Example 114]
83 | < 1000 nM | Cn1c(OCc2ccc(F)cc2)nn2c(C3CCOCC3)nc(Cl)c2c1=O [Example 117, 5-Chloro-2-[(4-fluorobenzyl)oxy]-3-methyl-7-(tetrahydro-2H-pyran-4-yl)imidazo[5,1-f][1,2,4]triazin-4(3H)-one]
84 | < 1000 nM | CCn1c(OCCCc2ccccn2)nn2c(C3CCOCC3)nc(Cl)c2c1=O [Example 118]
85 | < 1000 nM | CCn1c(OCC2CCC(F)(F)CC2)nn2c(C3CCOCC3)nc(Cl)c2c1=O [Example 119, 5-chloro-2-[(4,4-difluorocyclohexyl)methoxy]-3-ethyl-7-(tetrahydro-2H-pyran-4-yl)-imidazo[5,1-f][1,2,4]triazin-4(3H)-one]
86 | < 1000 nM | CCn1c(OCC2CCC(F)(F)CC2)nn2c(C3CCOCC3)nc(C)c2c1=O [Example 121]
